Measurements: ChEMBL document CHEMBL3301458, “MMV Malaria Box hERG screening”
The source made the active and inactive calls. How the calls were made is not given here.

How the values were obtained:
[1] = target: T1, hERG (Kv11.1, KCNH2) (Homo sapiens, UniProt Q12809); assay: in vitro
Description: MMV: Malaria Box compounds were tested for inhibition of the human ether a go-go related gene (hERG), Kv11.1 channel, using IonWorks 384-well patch clamp electrophysiology at 1.1uM (3 independent assay plates up to 12 cells per concentration).

[2] = target: T1, hERG (Kv11.1, KCNH2); assay: in vitro; remark: listed apart in the source
Description: MMV: Malaria Box compounds were tested for inhibition of the human ether a go-go related gene (hERG), Kv11.1 channel, using IonWorks 384-well patch clamp electrophysiology at 11.1uM (3 independent assay plates up to 12 cells per concentration).

T1 sequence (Q12809 whole entry): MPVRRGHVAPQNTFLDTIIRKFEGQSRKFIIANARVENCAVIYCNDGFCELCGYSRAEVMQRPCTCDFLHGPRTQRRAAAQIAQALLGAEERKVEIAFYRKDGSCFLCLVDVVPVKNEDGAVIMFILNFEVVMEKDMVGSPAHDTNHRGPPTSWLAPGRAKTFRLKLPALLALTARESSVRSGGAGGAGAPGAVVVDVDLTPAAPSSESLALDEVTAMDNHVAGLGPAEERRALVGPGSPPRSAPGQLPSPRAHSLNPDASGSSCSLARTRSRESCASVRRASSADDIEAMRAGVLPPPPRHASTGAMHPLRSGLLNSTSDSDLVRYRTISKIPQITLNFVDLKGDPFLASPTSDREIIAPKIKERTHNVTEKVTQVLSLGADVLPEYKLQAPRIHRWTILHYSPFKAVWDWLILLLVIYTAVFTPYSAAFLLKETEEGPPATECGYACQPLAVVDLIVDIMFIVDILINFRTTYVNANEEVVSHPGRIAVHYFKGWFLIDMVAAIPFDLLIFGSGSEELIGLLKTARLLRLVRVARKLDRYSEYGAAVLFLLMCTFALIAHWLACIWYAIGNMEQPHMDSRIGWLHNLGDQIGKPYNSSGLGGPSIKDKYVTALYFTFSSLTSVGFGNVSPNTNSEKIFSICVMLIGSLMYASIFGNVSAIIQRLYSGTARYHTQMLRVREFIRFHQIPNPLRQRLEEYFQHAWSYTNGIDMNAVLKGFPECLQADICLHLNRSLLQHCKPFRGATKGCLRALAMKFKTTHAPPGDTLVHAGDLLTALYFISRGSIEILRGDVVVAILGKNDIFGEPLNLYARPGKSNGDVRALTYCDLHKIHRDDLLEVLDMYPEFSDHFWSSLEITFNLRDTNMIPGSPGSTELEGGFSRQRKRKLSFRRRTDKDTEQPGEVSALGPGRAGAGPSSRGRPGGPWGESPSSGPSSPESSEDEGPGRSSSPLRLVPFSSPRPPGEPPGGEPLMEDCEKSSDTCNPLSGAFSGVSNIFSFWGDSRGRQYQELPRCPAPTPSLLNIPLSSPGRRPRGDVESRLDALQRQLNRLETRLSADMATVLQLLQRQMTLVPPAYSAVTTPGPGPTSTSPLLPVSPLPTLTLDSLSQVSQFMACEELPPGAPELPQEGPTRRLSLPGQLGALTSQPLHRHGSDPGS

SMILES | inhibition at 1.1 µM [1] [%] | inhibition at 11.1 µM [2]
c1ccc(/C2=N/c3ccccc3/N=C(/c3ccccc3)c3ccccc32)cc1 | 7 | 3% (inactive)
CCOC(=O)c1cnc2ccc(CC)cc2c1O | 1 | 12% (inactive)
CN(C)CCNc1cc(-c2ccccc2)nc2ccccc12 | 20 | 66% (active)
COc1ccc2nc(C)cc(Nc3ccc(Cl)cc3)c2c1 | 67 | 111%
COc1cc2cc(C(=O)Nc3ccccc3)c(N)nc2cc1OC | 10 | 69% (active)
CCOc1ccc(CN2CCN(CC(O)COc3ccc(OCC(O)CN4CCN(Cc5ccc(OCC)cc5)CC4)cc3)CC2)cc1 (centres undefined) | 70 | 83%
Brc1ccc(Nc2nc3ccccc3nc2Nc2ccc(Br)cc2)cc1 | 2 | 2% (inactive)
CCCN(CCC)CC(O)COc1ccccc1C(=O)Nc1ccccc1 (centres undefined) | 57 | 98%
Cc1ccc(CSCc2ccc(C(=O)NC3CC3)o2)cc1 | 2 | 26%
Cc1cc(Nc2ccc(OCc3ccccc3)cc2)nc2cc(O)ccc12 | -2 | 108% (active)
CN1CCN(c2c3c(c(C#N)c4nc5ccccc5n24)CCC3)CC1 | 7 | 45%
CCOc1ccc2nc(C)cc(Nc3ccc(N(C)C)cc3)c2c1 | 4 | 3% (inactive)
COc1ccc(Nc2cc(C)nc(NCc3ccccc3)n2)cc1 | > 5 | 67% (active)
COc1cc(-c2nc(-c3ccc(Sc4ccccc4)cc3)c(-c3ccccc3)[nH]2)cc(OC)c1O | 15 | 13% (inactive)
COc1ccc2c(c1)OC(O)(C(F)(F)C(F)(F)F)CC2=O (centres undefined) | 4 | 25%
Cc1ccc(-c2cc3nc4c(c(O)n3n2)CCCC4)cc1 | -4 | 11% (inactive)
CC(=O)NCCc1nc2ccccc2n1Cc1ccc(C(C)C)cc1 | 6 | 26%
O=C(Nc1ccc(-c2nc3cc(NC(=O)c4ccc(Cl)cc4)ccc3[nH]2)cc1)c1ccc(Cl)cc1 | -9 | 28%
COc1nc(Nc2ccc(C(C)C)cc2)nc(OC)n1 | -2 | 17% (inactive)
Cc1ccccc1OCCSc1nc2ccc(NC(=O)c3cccs3)cc2s1 | 12 | 24% (inactive)
c1ccc2cc3c(Nc4ccc(N5CCOCC5)cc4)ccnc3cc2c1 | 38 | 87% (active)

SMILES | inhibition at 1.1 µM [1] [%] | inhibition at 11.1 µM [2]
COc1ccc(C(=O)C(CCC(CNC(C)(C)C)C(=O)c2ccc(OC)cc2)CNC(C)(C)C)cc1 (centres undefined) | 9 | 33%
CC(C)CCNCC(O)Cn1c2ccccc2c2ccccc21 (centres undefined) | 2 | 61% (active)
CCOC(=O)c1cnc2ccc(Cl)cc2c1NCCCN(C)C | 21 | 85% (active)
Cc1cc(C)c2c(c1)OCN(Cc1ccccc1Cl)C2 | 30 | 88% (active)
CCOc1ccccc1NC(=O)CN1CCN(C(=O)c2ccco2)CC1 | 13 | 35%
c1ccc2c(NCCc3c[nH]c4ccccc34)c3ccccc3nc2c1 | 64 | 109%
O=C(Nc1ccc(C23CC4CC(CC(c5ccccc5)(C4)C2)C3)cc1)c1cccs1 | 4 | 3% (inactive)
Cc1ccccc1OCCSc1nc2ccc(NC(=O)c3ccccc3)cc2s1 | -9 | 2% (inactive)
Cc1cc(NC(=O)C2c3ccccc3C(=O)N(CC(C)C)C2c2cccs2)no1 (centres undefined) | 4 | 11% (inactive)
Cc1ccc(Cn2c(N3CCC(C(=O)NCc4cccs4)CC3)nc3ccccc32)cc1 | 105 | 103%
O=c1nc(C=Cc2ccc(Cl)cc2)oc2ccccc12 | -5 | 10% (inactive)
O=C(NCc1ccco1)C1CCN(S(=O)(=O)c2ccc(Br)cc2)CC1 | 21 | 34%
COc1ccc(-c2nc3cc(Cc4ccc5[nH]c(-c6ccc(OC)cc6)nc5c4)ccc3[nH]2)cc1 | -7 | -1% (inactive)
Cc1ccc2c(C)nc(Nc3nc(C)cc(-c4ccccc4)n3)nc2c1 | -1 | 4% (inactive)
CCOc1ccc(Nc2ccnc3cc(Cl)ccc23)cc1 | 5 | 26%
CCOC(=O)c1ccc2[nH]c(-c3ccccc3)cc(=O)c2c1 | -1 | 7% (inactive)
Clc1ccc2[nH]c3c(NCCCN4CCOCC4)ncnc3c2c1 | 29 | 89% (active)
COc1ccc(OC)c(C2C3=C(CC(C)(C)CC3=O)N(c3ccc(Cl)c(Cl)c3)C3=C2C(=O)CC(C)(C)C3)c1 | 21 | 27%
Cc1cccc(N2C(=O)C3C(C2=O)C2(c4ccccc4)C(=O)C3(c3ccccc3)C(c3ccc4c(c3)OCO4)=C2c2ccc3c(c2)OCO3)c1 (centres undefined) | -14 | 2% (inactive)
Cc1cc(=O)oc2c1ccc1oc(C(=O)c3ccccc3)c(C)c12 | -6 | 6% (inactive)
COc1ccc(C(C)=O)cc1N1C(=O)C2C(C1=O)C1(c3ccccc3)C(=O)C2(c2ccccc2)C(c2ccc(C)cc2)=C1c1ccc(C)cc1 (centres undefined) | -5 | -1% (inactive)

SMILES | inhibition at 1.1 µM [1] [%] | inhibition at 11.1 µM [2]
COc1ccc(CCNC(=O)c2cc(S(=O)(=O)N3CC(C)CC(C)C3)ccc2Sc2ccc(F)cc2)cc1OC (centres undefined) | 10 | 5% (inactive)
Cc1ccc(F)cc1NC(=O)c1cc(Cl)ccc1Nc1ccccc1 | 5 | 12% (inactive)
CCOc1ccc2nc(C)cc(Nc3ccc(Br)cc3)c2c1 | 3 | 16% (inactive)
CCCCc1c(C)nc2c(OC)cccc2c1O | -9 | 4% (inactive)
CCCCCCOC(=O)C1=C(C)NC(=O)NC1c1ccccc1F (centres undefined) | -2 | 1% (inactive)
OC1=C2C(=Nc3ccccc3SC2c2ccc(Br)cc2)c2ccccc21 (centres undefined) | 3 | 10% (inactive)
Clc1ccc2c(N3CCCC3)ccnc2c1 | 38 | 83% (active)
COc1cc2c3cc1Oc1c(OC)c(OC)cc4c1C(Cc1ccc(O)c(c1)Oc1ccc(cc1)CC3N(C)CC2)N(C)CC4 (centres undefined) | 14 | 69% (active)
Cc1ccc(N2C3c4ccccc4N(S(=O)(=O)c4ccc(C)cc4)C2c2ccccc2N3S(=O)(=O)c2ccc(C)cc2)cc1 | 18 | 18% (inactive)
Cc1ccc(C)c(-c2csc(Nc3ccc(C)c(C)c3)n2)c1 | 57 | 100%
CCOc1c(Br)cc(C2C(C(=O)OC)=CN(C)C=C2C(=O)OC)cc1OC | 3 | 21% (inactive)
CCOc1ccc(CCNC(=O)c2cccs2)cc1OCC | 9 | 13% (inactive)
Cc1cc(N2CCN(C3CCCC3)CC2)n2c(nc3ccccc32)c1C#N | -3 | 45%
CCCCOc1ccc(C(=O)Nc2cc(C)on2)cc1 | -2 | 2% (inactive)
COc1ccccc1N1C(=N)SC(=Cc2ccc(OCc3ccccc3F)cc2)C1=O | 18 | 24% (inactive)
CCc1ccc(Nc2cc(C)nc3nc(C)nn23)cc1 | -2 | 42%
CCOC(=O)C1=CN(C)C=C(C(=O)OCC)C1c1cc(Br)c(OCC)c(OC)c1 | 16 | 54% (active)
C=CCc1c(C)nc2ccccc2c1O | 11 | 11% (inactive)
CCCCc1c(CCC)c(=N)c2ccccc2n1C | 29 | 74% (active)
CCCCN(CCCC)S(=O)(=O)c1ccc(NC(=O)c2ccco2)cc1 | 13 | 30%
